One block for each molecule: values may come before it.
Legend:
[1] = Nephrotoxicity comparison, dose escalation 150 mg/kg to 750 mg/kg PO (Example 3, FIGS. 7-10); assay type: in vivo, rats; conditions: for BUN / Creatinine: PO doses from 150 mg/kg to 750 mg/kg
[2] = Nephrotoxicity of Compound 100 and non-deuterated D-serine at 150 mg/kg PO (Example 3); assay type: in vivo, male Sprague-Dawley Rats
Source text: (§1) The pharmacokinetic profile of Compound 100 was investigated in male Sprague-Dawley rats compared with that of non-deuterated D-serine. […] Plasma was collected and analyzed for Compound 100 and non-deuterated D-Serine. Additional blood was collected and analyzed for the full clinical chemistry profile.

[3] = Nephrotoxicity of non-deuterated D-serine at 300 mg/kg PO: clinical chemistry and urine (Example 2); assay type: in vivo, Male Sprague-Dawley Rats
Experimental: The hippocampus, cortex and plasma were collected and analyzed. Additional blood was collected and were analyzed for the full clinical chemistry profile. Urine was also collected and examined for glucose and total protein. […] The mean plasma, hippocampus, and cortex concentration at 1 hour are 19200 ng/mL, 674 ng/g, and 754 ng/g; respectively. The mean plasma, hippocampus, and cortex concentrations at 8 hours were 11250 ng/mL, 17725 ng/g, and 11875 ng/g, respectively. […] Blood urea nitrogen and creatinine levels were elevated.

[4] = target: T1, human NMDAR subunits GluN1 and GluN2A (Homo sapiens, UniProt Q05586); assay: Automated patch clamp (ScreenPatch) NMDA receptor activation in HEK293 cells; assay type: cell-based; conditions: 0.003 to 10 μM
T1 construct: expressed in transfected cells; host or cells: HEK293
Experimental: Peak current and steady state current were measured. The activity at the NMDA receptor was indistinguishable for the two compounds.

[5] = Nephrotoxicity dose response of non-deuterated D-serine, 30-300 mg/kg PO (Example 4); assay type: in vivo, male Sprague-Dawley Rats; conditions: 24 hr samples at the 150 and 300 mg/kg doses, compared to control and reference values
Source text: (§2) The pharmacokinetic profile of non-deuterated D-serine was investigated in male Sprague-Dawley rats. […] Plasma was collected and analyzed for the non-deuterated D-serine. Additional blood was collected and analyzed for the full clinical chemistry profile.

[6] = Pharmacokinetics dose response of non-deuterated D-serine, 30-300 mg/kg PO (Example 4); assay type: in vivo, male Sprague-Dawley rats
Source text: as §2

[7] = Pharmacokinetics of deuterated and non-deuterated D-serine, PO 10 mg/kg (Example 5); assay type: in vivo, male Sprague Dawley rats
Experimental: Three rats were used for each group. Blood was collected at the following time points: for IV dosing: pre-dose, 0.05, 0.167, 0.5, 1, 2, 4, 6, 8 and 12 hours post-dose; for PO dosing: pre-dose, 0.25, 0.5, 1, 2, 4, 6, 8 and 12 hours post-dose PO. Urine was collected at pre-dose (minimum 12 hours), 0-6, 6-12 and 12-24 hours. Plasma samples were analyzed and quantified for dosed compound LC-MS/MS.

[8] = Pharmacokinetic profile of Compound 100 vs non-deuterated D-serine, single 150 mg/kg PO dose (Example 3); assay type: in vivo, male Sprague-Dawley rats
Source text: as §1

[9] = dose escalation 150 mg/kg to 750 mg/kg
[10] = serum, D-serine at 24 hr, Compound 100 at 4, 8 and 24 hours

Activity at the NMDA receptor (peak current and steady state current) [4]: indistinguishable
AUCinf, multiple of the 30 mg/kg value ([6]; 75 mg/kg PO (2.5× dose)): 2.9×
Cmax, multiple of the 30 mg/kg value ([6]; 75 mg/kg PO (2.5× dose)): 2.2×
AUCinf, multiple of the 30 mg/kg value ([6]; 100 mg/kg PO (3.3× dose)): 4.9×
Cmax, multiple of the 30 mg/kg value ([6]; 100 mg/kg PO (3.3× dose)): 4.0×
AUCinf, multiple of the 30 mg/kg value ([6]; 150 mg/kg PO (5× dose)): 6.9×
Cmax, multiple of the 30 mg/kg value ([6]; 150 mg/kg PO (5× dose)): 7.4×
AUCinf, multiple of the 30 mg/kg value ([6]; 300 mg/kg PO (10× dose)): 18×
Cmax, multiple of the 30 mg/kg value ([6]; 300 mg/kg PO (10× dose)): 10.7×
Tmax ([6]; plasma, 150 mg/kg PO): 18 min
SMILES: N[C@H](CO)C(=O)O [Non-deuterated D-Serine, D-serine]
BUN [1]: increasingly elevated levels
Creatinine [1]: increasingly elevated levels
Gross signs of nephrotoxicity [1, 9]: observed
Levels of biomarkers of nephrotoxicity [2]: caused an increase
Blood urea nitrogen (BUN) level ([2]; serum, D-serine at 8 hr and 24 hr, Compound 100 at 4, 8 and 24 hours): Elevated
Creatinine level [2, 10]: Elevated
Gamma glutamyl transferase (GGT) level [2, 10]: Elevated
Blood urea nitrogen level [3]: elevated
Creatinine level [3]: elevated
Glucose in urine [3]: observed
Creatine level [5]: Elevated
Gamma glutamyl transferase (GGT) level [5]: Elevated
Urea nitrogen level [5]: Elevated

Tmax compared with non-deuterated D-serine [7]: similar
Activity at the NMDA receptor (peak current and steady state current) [4]: indistinguishable
Cmax and AUCinf compared with non-deuterated D-serine [8]: similar
SMILES: [2H][C@@](N)(CO)C(=O)O [Compound 100, (2R)-2-amino-2-deutero-3-hydroxy-propanoic acid]
BUN [1]: minimal changes
Creatinine [1]: minimal changes
Exposure as measured by AUC and Cmax, compared with non-deuterated D-serine [1, 9]: greater
Gross signs of nephrotoxicity [1, 9]: not
Levels of biomarkers of nephrotoxicity [2]: did not increase

Source: patent publication US20220218641A1 (Concert Pharmaceuticals, Inc., priority 2019, published 2022)
